Values belong to the molecule of their own block, whether it stands above or below them.
Tests used:
[1] = biological target: FAK (focal adhesion kinase) FERM domain (Homo sapiens, UniProt Q05397); type: binding
[2] = biological target: Recombinant HER2-ICD (Intracellular Domain) (human, UniProt P04626 676-1255)

IC50 [1]: 170 nM
Molecule: Cc1nc(SC(C)C(=O)Nc2ccc3[nH]c(=O)[nH]c3c2)n(C2CCCC2)c1C (racemic) [VS4, (rac)-2-((1-cyclopentyl-4,5-dimethyl-1H-imidazol-2-yl)thio)-N-(2-oxo-2,3-dihydro-1H-benzo[d]imidazol-5-yl)propanamide]

IC50 [1]: 187 nM
Molecule: CC(Oc1ccc(C(=O)NCCN2CCN(C)CC2c2ccccc2)cn1)c1ccccc1 (racemic) [VS14, (rac)-N-(2-(4-methyl-2-phenylpiperazin-1-yl)ethyl)-6-(1-phenylethoxy)nicotinamide]

Kd [2]: 571 nM
B1: GST-FAK-NT (FERM) (domain or fragment, UniProt Q05397 35-355, looked up)
chain: RVLKVFHYFESNSEPTTWASIIRHGDATDVRGIIQKIVDSHKVKHVACYGFRLSHLRSEEVHWLHVDMGVSSVREKYELAHPPEEWKYELRIRYLPKGFLNQFTEDKPTLNFFYQQVKSDYMLEIADQVDQEIALKLGCLEIRRSYWEMRGNALEKKSNYEVLEKDVGLKRFFPKSLLDSVKAKTLRKLIQQTFRQFANLNREESILKFFEILSPVYRFDKECFKCALGSSWIISVELAIGPEEGISYLTDKGCNPTHLADFTQVQTIQYSNSEDKDRKGMLQLKIAGAPEPLTVTAPSLTIAENMADLIDGYCRLVNGTS
